Test results reported in ChEMBL document CHEMBL5338718, “Design and exploration of gut-restricted bifunctional molecule with TGR5 agonistic and DPP4 inhibitory effects for treating ulcerative colitis” (Eur J Med Chem, 2022).
Activity calls are given as the source filed them. The rule behind the calls is not given here.

Legend:
[1] = target: T1, G-protein coupled bile acid receptor 1 (Homo sapiens, UniProt Q8TDU6); test: Agonist activity at human TGR5 expressed in human HEK293 cells co-expressing CRE-driven luciferase reporter gene assessed as luciferase activity incubated for 5.5 hrs by Steady-Glo based luciferase assay; format: functional, cell-based
T1 sequence (Q8TDU6 whole entry): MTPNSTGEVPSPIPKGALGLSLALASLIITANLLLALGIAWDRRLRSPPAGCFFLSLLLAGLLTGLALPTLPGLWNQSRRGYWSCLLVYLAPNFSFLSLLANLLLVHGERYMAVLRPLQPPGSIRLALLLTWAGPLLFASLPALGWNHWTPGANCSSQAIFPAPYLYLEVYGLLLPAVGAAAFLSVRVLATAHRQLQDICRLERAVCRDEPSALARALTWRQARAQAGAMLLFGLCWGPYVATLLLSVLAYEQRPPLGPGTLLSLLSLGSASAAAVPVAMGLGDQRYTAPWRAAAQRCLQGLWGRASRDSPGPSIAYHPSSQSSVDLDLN

[2] = target: T2, G-protein coupled bile acid receptor 1 (Mus musculus, UniProt Q80SS6); test: Agonist activity at mouse TGR5 expressed in human HEK293 cells co-expressing CRE-driven luciferase reporter gene assessed as luciferase activity incubated for 5.5 hrs by Steady-Glo based luciferase assay; format: functional, cell-based
T2 sequence (Q80SS6 whole entry): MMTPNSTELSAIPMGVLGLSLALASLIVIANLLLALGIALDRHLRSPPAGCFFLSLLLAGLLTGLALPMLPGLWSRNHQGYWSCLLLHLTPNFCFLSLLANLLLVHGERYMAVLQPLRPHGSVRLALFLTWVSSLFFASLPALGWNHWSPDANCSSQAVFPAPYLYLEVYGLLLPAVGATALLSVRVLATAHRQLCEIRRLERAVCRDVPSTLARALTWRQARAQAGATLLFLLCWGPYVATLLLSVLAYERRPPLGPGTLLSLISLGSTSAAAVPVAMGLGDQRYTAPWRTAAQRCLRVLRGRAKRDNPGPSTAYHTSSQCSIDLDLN

Dipeptidyl peptidase 4 = Dipeptidyl peptidase 4 (Mus musculus, UniProt P28843); test: Inhibition of mouse serum DPP4 assessed as cleavage of substrate by measuring AMC release using Gly-Pro-AMC as substrate by fluorescence based microplate reader assay; format: cell-free
Mus musculus [3] = test: In vivo inhibition of DDP4 in ICR mouse assessed as decrease in enzyme activity in serum at 200 mg/kg,po and measured at 2 hrs using Gly-Pro-AMC as substrate by fluorescence based microplate reader assay; format: functional, organism-based
Mus musculus [4] = test: In vivo inhibition of DDP4 in ICR mouse assessed as decrease in enzyme activity in serum at 200 mg/kg,po and measured at 4 hrs using Gly-Pro-AMC as substrate by fluorescence based microplate reader assay; format: functional, organism-based
Mus musculus [5] = test: In vivo inhibition of DDP4 in ICR mouse assessed as decrease in enzyme activity in serum at 200 mg/kg,po and measured after 8 hrs using Gly-Pro-AMC as substrate by fluorescence based microplate reader assay; format: functional, organism-based
Mus musculus [6] = test: In vivo inhibition of DDP4 in ICR mouse assessed as decrease in enzyme activity in ileum at 200 mg/kg,po and measured after 8 hrs using Gly-Pro-AMC as substrate by fluorescence based microplate reader assay; format: functional, organism-based
Mus musculus [7] = test: In vivo inhibition of DDP4 in ICR mouse assessed as decrease in enzyme activity in ileum at 30 mg/kg,po and measured after 8 hrs using Gly-Pro-AMC as substrate by fluorescence based microplate reader assay; format: functional, organism-based
Mus musculus [8] = test: Induction of gut restriction in overnight fasted ICR mouse assessed as effect on gallbladder-filling by measuring gallbladder volume at 50 mg/kg, po and measured after 4 hrs by Vernier caliper analysis; format: functional, organism-based
Mus musculus [9] = test: Induction of gut restriction in overnight fasted ICR mouse assessed as effect on gallbladder-filling by measuring bile weight at 50 mg/kg, po and measured after 4 hrs by Vernier caliper analysis; format: functional, organism-based
[10] = Water solubility at pH 6.8; format: physicochemical

Dipeptidyl peptidase 4, sequence (P28843 whole entry): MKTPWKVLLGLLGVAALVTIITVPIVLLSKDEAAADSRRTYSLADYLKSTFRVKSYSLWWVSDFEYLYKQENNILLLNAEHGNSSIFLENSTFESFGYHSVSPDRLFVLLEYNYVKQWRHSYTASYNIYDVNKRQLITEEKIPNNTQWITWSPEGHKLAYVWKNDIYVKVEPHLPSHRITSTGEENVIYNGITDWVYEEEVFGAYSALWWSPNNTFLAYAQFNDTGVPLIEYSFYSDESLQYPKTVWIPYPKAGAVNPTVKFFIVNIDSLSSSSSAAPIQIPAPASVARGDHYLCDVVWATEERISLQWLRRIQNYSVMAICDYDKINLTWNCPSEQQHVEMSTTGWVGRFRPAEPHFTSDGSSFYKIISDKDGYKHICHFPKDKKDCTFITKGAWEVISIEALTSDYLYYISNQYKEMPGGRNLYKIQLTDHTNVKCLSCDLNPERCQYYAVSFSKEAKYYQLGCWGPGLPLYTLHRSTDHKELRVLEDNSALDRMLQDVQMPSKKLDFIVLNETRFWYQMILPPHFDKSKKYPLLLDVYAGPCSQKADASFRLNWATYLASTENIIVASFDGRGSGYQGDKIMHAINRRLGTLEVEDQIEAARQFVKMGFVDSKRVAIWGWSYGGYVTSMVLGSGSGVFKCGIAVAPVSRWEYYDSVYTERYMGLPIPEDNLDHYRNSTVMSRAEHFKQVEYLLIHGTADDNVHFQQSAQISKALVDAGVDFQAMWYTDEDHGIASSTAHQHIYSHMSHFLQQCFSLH

Row | EC50 [1] [nM] | EC50 [2] [nM] | IC50 (Dipeptidyl peptidase 4) [nM] | solubility [10] [µM] | Compound | other results
1 | 11.2 | 10.5 | > 10000 | – | O=C(O)CCc1cc(Cl)c(Oc2ccsc2C(=O)N2CCN(C3CC3)c3ccccc32)cc1Cl | –
2 | – | – | – | – | N[C@@H](CC(=O)N1CCn2c(nnc2C(F)(F)F)C1)Cc1cc(F)c(F)cc1F | inhibition (Mus musculus [3]): Active; inhibition (Mus musculus [4]): Active; inhibition (Mus musculus [5]): Active; inhibition (Mus musculus [6]): Active; inhibition (Mus musculus [7]): Active
3 | – | – | – | – | O=C(c1cnccc1Oc1cc(Cl)ccc1Cl)N1CCN(C2CC2)c2ccccc21 | Activity (Mus musculus [8]): inactive; Activity (Mus musculus [9]): inactive
4 | > 1000 | > 1000 | 10.4 | – | CC1C(=O)NCCCN1C(=O)C[C@H](N)Cc1cc(F)c(F)cc1F (mixture of isomers) | –
5 | 3.6 | 2.1 | 103 | 20 | N[C@@H](CC(=O)N1CCCN(CC(=O)NCCOCCOCCOCCOCCOCCOCCOCCNC(=O)CCc2cc(Cl)c(Oc3ccsc3C(=O)N3CCN(C4CC4)c4ccccc43)cc2Cl)C(=O)C1Cc1ccccc1)Cc1cc(F)c(F)cc1F (mixture of isomers) | –
6 | 3.2 | 2.4 | 64.8 | 50 | CC1C(=O)N(CC(=O)NCCOCCOCCOCCOCCOCCOCCOCCOCCNC(=O)CCc2cc(Cl)c(Oc3ccsc3C(=O)N3CCN(C4CC4)c4ccccc43)cc2Cl)CCCN1C(=O)C[C@H](N)Cc1cc(F)c(F)cc1F (mixture of isomers) | –
7 | – | – | 0.8 | – | N[C@@H](CC(=O)N1CCCNC(=O)C1Cc1ccccc1)Cc1cc(F)c(F)cc1F (mixture of isomers) | –
8 | 6.1 | 3.7 | 113 | 10 | N[C@@H](CC(=O)N1CCCN(CC(=O)NCCOCCOCCOCCNC(=O)CCc2cc(Cl)c(Oc3ccsc3C(=O)N3CCN(C4CC4)c4ccccc43)cc2Cl)C(=O)C1Cc1ccccc1)Cc1cc(F)c(F)cc1F (mixture of isomers) | –
9 | 2.8 | 2.3 | 60.1 | 50 | CC1C(=O)N(CC(=O)NCCOCCOCCOCCOCCOCCOCCNC(=O)CCc2cc(Cl)c(Oc3ccsc3C(=O)N3CCN(C4CC4)c4ccccc43)cc2Cl)CCCN1C(=O)C[C@H](N)Cc1cc(F)c(F)cc1F.F (mixture of isomers) | –
10 | 3.7 | 2.3 | 112 | 20 | N[C@@H](CC(=O)N1CCCN(CC(=O)NCCOCCOCCOCCOCCOCCOCCNC(=O)CCc2cc(Cl)c(Oc3ccsc3C(=O)N3CCN(C4CC4)c4ccccc43)cc2Cl)C(=O)C1Cc1ccccc1)Cc1cc(F)c(F)cc1F (mixture of isomers) | –
11 | 3.8 | 2.3 | 104 | – | C.N[C@@H](CC(=O)N1CCCN(CC(=O)NCCOCCOCCOCCOCCOCCOCCOCCOCCNC(=O)CCc2cc(Cl)c(Oc3ccsc3C(=O)N3CCN(C4CC4)c4ccccc43)cc2Cl)C(=O)C1Cc1ccccc1)Cc1cc(F)c(F)cc1F (mixture of isomers) | –
12 | 2.5 | 2.3 | 57.5 | 50 | CC1C(=O)N(CC(=O)NCCOCCOCCOCCOCCOCCNC(=O)CCc2cc(Cl)c(Oc3ccsc3C(=O)N3CCN(C4CC4)c4ccccc43)cc2Cl)CCCN1C(=O)C[C@H](N)Cc1cc(F)c(F)cc1F (mixture of isomers) | –
13 | 4.5 | 4.3 | 119 | – | CC1C(=O)N(CC(=O)NCCOCCOCCOCCNC(=O)CCc2cc(Cl)c(Oc3ccsc3C(=O)N3CCN(C4CC4)c4ccccc43)cc2Cl)CCCN1C(=O)C[C@H](N)Cc1cc(F)c(F)cc1F (mixture of isomers) | –
14 | 2.8 | 2.1 | 54.8 | 50 | CC1C(=O)N(CC(=O)NCCOCCOCCOCCOCCOCCOCCOCCNC(=O)CCc2cc(Cl)c(Oc3ccsc3C(=O)N3CCN(C4CC4)c4ccccc43)cc2Cl)CCCN1C(=O)C[C@H](N)Cc1cc(F)c(F)cc1F (mixture of isomers) | –
15 | 4.9 | 2.7 | 124 | 10 | N[C@@H](CC(=O)N1CCCN(CC(=O)NCCOCCOCCOCCOCCOCCNC(=O)CCc2cc(Cl)c(Oc3ccsc3C(=O)N3CCN(C4CC4)c4ccccc43)cc2Cl)C(=O)C1Cc1ccccc1)Cc1cc(F)c(F)cc1F (mixture of isomers) | –
16 | 14.9 | 6 | 224 | – | CC1C(=O)N(CC(=O)NCCN(C)C(=O)CCc2cc(Cl)c(Oc3ccsc3C(=O)N3CCN(C4CC4)c4ccccc43)cc2Cl)CCCN1C(=O)C[C@H](N)Cc1cc(F)c(F)cc1F (mixture of isomers) | –
